Read-outs that look alike come from different tables or passages of the source.
Assays:
[1] = Thermal stability, MIL film in GC capillary with flame ionization detection; assay type: physicochemical; settings: for onset of decomposition (thermal stability): 40° C. to 350° C. at 1° C./min
Description: The thermal stability of all exemplary MILs was tested by monitoring the thermal volatilization/decomposition of the MIL when the MIL was used as a stationary phase in gas chromatography. To achieve this, an approximate 0.25-0.28 μm film of IL/MIL was immobilized on the inner wall of a fused silica capillary. The IL/MIL coated capillary was then heated slowly in a GC oven and an ultra-sensitive flame ionization detector (FID) was used to detect any volatilization/decomposition of the IL/MIL. These tests were run using a temperature program starting at 40° C. and increased at 1° C./min to 350° C. on an Agilent 6850 gas chromatograph with a flame ionization detector (Santa Clara, Calif., USA). The [P66614^+] [Cl^−] IL was also coated under the same conditions and was used as a reference.

[2] = 25° C.; cited from earlier work
[3] = tested on: E. coli K12 cells; assay type: cell-based
Description: Since culture-based methods are contingent upon the isolation of viable bacteria, the detection of E. coli following MIL-based cell extraction is influenced by the cytotoxicity of MILs. To study the effect of MILs on the growth of E. coli, a 1 mL aliquot of LB media was inoculated with 8.0×10^2±0.5×10^2 CFUs mL^−1 and spiked with approximately 10 μL of a MIL. The mixture was agitated by vortex to simulate the recovery procedure after which a 100 μL aliquot of the suspension was plated on selective agar.

[4] = Hydrophobicity comparison: 50 μL MIL in 12 mL water, vortexed and heated to 85° C.; assay type: physicochemical; settings: 50 μL MIL in 12 mL deionized water, 85° C. for 10 minutes
Description: […] […] Vortexing the MIL droplet caused dispersion of the MIL into fine microdroplets that were suspended within the aqueous solution, ultimately settling at the bottom of the vessel. […] Each MIL was vortexed and heated to 85° C. for 10 minutes.

[5] = tested on: E. coli; experiment: PCR amplification of LB back-extraction solution after MIL-based extraction; settings: for E. coli concentration at which bacterial pDNA was detected by PCR: cell recovery in LB media prior to PCR, 2 mL sample; for amplicon after extraction of cell filtrate (cell-free DNA): filtrate of 1.68×10^5 CFUs mL^−1 suspension through 0.22 μm filter
Description: (§1) A general schematic for the MIL-based cell extraction procedure is depicted in FIG. 10. In a 4 mL screw cap glass vial, a controlled volume (e.g., 10 μL) of MIL was added to 2 mL of diluted cell suspension and dispersed into microdroplets by vortex agitation for 15-120 s. Following the dispersive extraction, a 0.9 T magnetic field was applied to collect the cell-enriched MIL extraction phase. After the aqueous phase was decanted, the MIL was subjected to a static wash with 2 mL of deionized water to ensure that residual cell suspension was removed. The extracted E. coli was recovered from the MIL solvent by vortexing the MIL in 1 mL of LB media from 30 to 300 s. Following back-extraction, aliquots of the cell-enriched LB media were cultured on selective agar as well as analyzed by PCR.
Following the recovery of E. coli cells from the MIL extraction phase, an aliquot of the LB back-extraction solution was analyzed by PCR. […] The thermal protocol used for amplification of the MTAP gene was as follows: 5 min initial denaturation at 95° C. followed by 30 cycles of 30 s denaturation at 95° C., 45 s annealing at 54° C., and elongation for 45 s at 72° C.
After thermal cycling, the PCR products were mixed with 10 μL of bromophenol blue tracking dye solution (30% glycerol v/v) and loaded on a 1% agarose gel stained with SYBR Safe DNA gel stain. The PCR amplicon was subjected to electrophoresis at approximately 4 V cm^−1 and subsequently visualized using a transilluminator.
To improve detection limits, cells were recovered from the MIL phase using […] and a 1 μL aliquot of LB media was analyzed by PCR amplification. […] MILs as extraction media.
MIL. […] 1999; 37:2479-82). It should be noted that PCR assays are unable to distinguish between live and dead cells and, therefore, are complementary to microbiological culture for the determination of viable cells in a sample.

[6] = Magnetic susceptibility, SQUID magnetometer; assay type: physicochemical; settings: for μeff, effective magnetic moment: from magnetic susceptibility data, SQUID
Description: The μeff values for each exemplary MIL were determined using a Quantum Design MPMS SQUID magnetometer following procedures similar to those previously reported. (Y. Mudryk, P. Manfrinetti, V. Smetana, J. Liu, M. L. Fornasini, A. Provino, V. K. Pecharsky, G. J. Miller and K. A. Gschneidner, J. Alloys Compd, 2013, 557, 252-260).

[7] = tested on: E. coli; experiment: MIL-based extraction of viable E. coli, selective culture and colony enumeration; settings: aqueous solutions of 1.68×10^5 CFUs mL^−1
Description: For each cell extraction experiment, 2 mL of sterile LB media with 100 μg mL^−1 carbenicillin was inoculated with 0.5 μL of E. coli glycerol stock and incubated overnight at 37° C. and 225 rpm. The overnight culture was centrifuged at 2820 g for 8 min and the supernatant discarded. The cells were then vortexed for 15 s in 2 mL of deionized water and centrifuged once again at 2820 g for 8 min. Following a total of three washes, the cells were re-suspended in 1 mL of deionized water. The concentration of cells within the suspension was initially determined by measuring the optical density of the sample at 600 nm (OD600), where an OD600 equal to 1.000 represents 8×10^8 E. coli cells mL^−1. The bacterial suspension was diluted to an OD600 value of 0.021 (1.68×10^7 cells mL^−1), after which 10-fold serial dilutions were performed to yield the desired sample concentration. Since the sample concentrations were below the detection limit of the spectrophotometer, the final concentration of each sample (in CFUs mL^−1) was obtained using a plate counting method. Briefly, 15 μL of diluted cell suspension were mixed with 985 μL of LB media and vortexed for 3 min. A […] aliquot of the suspension was spread onto a selective LB agar plate with 100 μg mL^−1 carbenicillin and incubated overnight at 37° C. to obtain visible colonies.
as §1
To detect viable bacteria recovered from the MIL extraction solvent, a culture-based method selective for E. coli transformants was employed. Following MIL-based extraction, a 100 μL aliquot of the LB back-extraction solution was plated on LB agar containing 100 μg mL^−1 carbenicillin and incubated overnight at 37° C. Visible colonies were counted, tabulated, and compared to the colonies obtained for the sample prior to extraction. The enrichment factor (EF) from the MIL-based extraction was calculated by Equation 1, where CMIL is the concentration of CFUs within the MIL extraction phase and CS represents the concentration of CFUs in the bacterial suspension prior to extraction. EF=CMIL/CS Equation 1
To determine if MILs can extract viable E. coli cells, aqueous solutions of 1.68×10^5 CFUs mL^−1 were extracted with each of the seven MILs using an approach that is similar to one depicted in FIG. 10. […] [Co(hfacac)3^−] MILs with the greatest number of colonies obtained from the Ni(II)-based MIL extractions.

[8] = 1 second vial inversion (viscosity comparison); assay type: physicochemical; settings: 1 second inversion of each MIL
Description: FIG. 2 compares the viscosities of [P66614^+]2[MnCl4^2−], [P66614^+][Ni(hfacac)3^−], and [P66614^+][Nd(hfacac)4^−] by performing a 1 second inversion of each MIL.

[9] = Pipette transfer at room temperature (preliminary viscosity testing); assay type: physicochemical; settings: neat MIL, without heating
Description: (§2) Pairing of intermediate 1a to an imidazolium-based cation was carried out for preliminary viscosity and hydrophobicity testing. A metathesis reaction was performed between 1-(6-hydroxyhexyl)-3-methylimidazolium chloride [MC6OHIM^+][Cl^−] and intermediate 1a to form [MC6OHIM^+] [Co(hfacac)3^−]. […] Since the broad applicability of hydrophobic MILs is very much dependent upon the ease with which they can be transferred using traditional liquid handling methods, the [P66614^+] cation was selected for preparation of the hfacac-based MILs.

[10] = Water solubility observation of intermediates and preliminary MILs (hydrophobicity testing); assay type: physicochemical; settings: color change in the aqueous solution two hours after addition of the MIL
Description: The [P66614^+][Cl^−] IL is commercially available.
as §2

[11] = LB media with 8.0×10^2 CFUs mL^−1, approximately 10 μL of MIL, compared to unexposed standard

| Compound | viscosity [2] [cP] | influence on the growth of E. coli [3, 11] | dissolution into the aqueous phase [4] | E. coli concentration at which bacterial pDNA was detected by PCR [5] | μeff, effective magnetic moment [6] [μB] | further results |
| --- | --- | --- | --- | --- | --- | --- |
| CCCCCCCCCCCCCC[P+](CCCCCC)(CCCCCC)CCCCCC.[Cl-] [[P66614^+] [Cl^−], Trihexyl(tetradecyl)phosphonium chloride, reference compound] | – | – | – | – | – | thermal decomposition compared with the MILs ([1]; reference): lowest thermal decomposition |
| CCCCCCCCCCCCCC[P+](CCCCCC)(CCCCCC)CCCCCC [No. 1, [P66614^+] tetrachloroferrate(III), reference compound] | 650 | hindered the proliferation of cells | dissolving into the aqueous solution | – | – | – |
| CCCCCCCCCCCCCC[P+](CCCCCC)(CCCCCC)CCCCCC.O=C(C=C([O-])C(F)(F)F)C(F)(F)F.O=C(C=C([O-])C(F)(F)F)C(F)(F)F.O=C(C=C([O-])C(F)(F)F)C(F)(F)F.[Co+2] [MIL 1, trihexyl(tetradecyl)phosphonium tris(hexafluoroacetylaceto)cobaltate(II)] | – | – | no sign of dissolution into the aqueous phase | 1.68×10^5 CFUs mL^−1 | 4.3 | sharp increase in the rate of decomposition [1]: around 200 °C; onset of decomposition (thermal stability) [1]: approximately 130 °C; influence on the growth of E. coli [3]: little to no influence on the growth of E. coli |
| CCCCCCCCCCCCCC[P+](CCCCCC)(CCCCCC)CCCCCC.O=C(C=C([O-])C(F)(F)F)C(F)(F)F.O=C(C=C([O-])C(F)(F)F)C(F)(F)F.O=C(C=C([O-])C(F)(F)F)C(F)(F)F.O=C(C=C([O-])C(F)(F)F)C(F)(F)F.[Gd+3] [MIL 5, [P66614^+] tetrakis(hexafluoroacetylaceto)gadolinate(III)] | – | hindered the proliferation of cells | – | – | 7.7 | – |
| CCCCCCCCCCCCCC[P+](CCCCCC)(CCCCCC)CCCCCC.O=C(C=C([O-])C(F)(F)F)C(F)(F)F.O=C(C=C([O-])C(F)(F)F)C(F)(F)F.O=C(C=C([O-])C(F)(F)F)C(F)(F)F.[Mn+2] [MIL 2, [P66614^+] tris(hexafluoroacetylaceto)manganate(II)] | – | – | – | – | – | degradation start, higher than the cobalt-based MIL [1]: approximately 25 °C; influence on the growth of E. coli [3]: little to no influence on the growth of E. coli; visible colonies after back-extraction with LB media and culture on selective agar [7]: did not yield any visible colonies; μeff ([6]; at higher temperatures): 5.5 μB; μeff ([6]; at lower temperatures): 5.8 μB |
| CCCCCCCCCCCCCC[P+](CCCCCC)(CCCCCC)CCCCCC.CCCCCCCCCCCCCC[P+](CCCCCC)(CCCCCC)CCCCCC.CCCCCCCCCCCCCC[P+](CCCCCC)(CCCCCC)CCCCCC.[Cl][Gd-3]([Cl])([Cl])([Cl])([Cl])[Cl] [[P66614]3[GdCl6^3−], [P66614] hexachlorogadolinate(III)] | 18390 | – | – | – | – | – |
| CCCCCCCCCCCCCC[P+](CCCCCC)(CCCCCC)CCCCCC.CCCCCCCCCCCCCC[P+](CCCCCC)(CCCCCC)CCCCCC.[Cl][Mn-2]([Cl])([Cl])[Cl] [[P66614^+]2[MnCl4^2−], [P66614^+] tetrachloromanganate(II), reference compound] | 75230 | – | – | – | – | movement down the vial [8]: little to no movement down the vial |
| CCCCCCCCCCCCCC[P+](CCCCCC)(CCCCCC)CCCCCC.O=C(C=C([O-])C(F)(F)F)C(F)(F)F.O=C(C=C([O-])C(F)(F)F)C(F)(F)F.O=C(C=C([O-])C(F)(F)F)C(F)(F)F.O=C(C=C([O-])C(F)(F)F)C(F)(F)F.[Nd+3] [MIL 6, [P66614^+] tetrakis(hexafluoroacetylaceto)neodymate(III)] | – | little to no influence on the growth of E. coli | no sign of dissolution into the aqueous phase | 1.68×10^5 CFUs mL^−1 | 2.8 | onset of decomposition (thermal stability) [1]: around 225 °C; movement down the vial [8]: flow easily toward the bottom of the vial; amplicon after extraction of cell filtrate (cell-free DNA) [5]: No amplicon was detected |
| C[n+]1ccn(CCCCCCO)c1.O=C(C=C([O-])C(F)(F)F)C(F)(F)F.O=C(C=C([O-])C(F)(F)F)C(F)(F)F.O=C(C=C([O-])C(F)(F)F)C(F)(F)F.[Co+2] [[MC6OHIM^+] [Co(hfacac)3^−]] | – | – | – | – | – | transfer with a pipette [9]: could not be transferred with a pipette; solubility in water [10]: soluble in water |
| CCCCCCCCCCCCCC[P+](CCCCCC)(CCCCCC)CCCCCC.O=C(C=C([O-])C(F)(F)F)C(F)(F)F.O=C(C=C([O-])C(F)(F)F)C(F)(F)F.O=C(C=C([O-])C(F)(F)F)C(F)(F)F.O=C(C=C([O-])C(F)(F)F)C(F)(F)F.[Dy+3] [MIL 4, [P66614^+] tetrakis(hexafluoroacetylaceto)dysprosate(III)] | – | little to no influence on the growth of E. coli | – | 1.68×10^5 CFUs mL^−1 | 9.7 | amplicon after extraction of cell filtrate (cell-free DNA) [5]: No amplicon was detected |

Reference: patent US11046991B2, “Rapid preconcentration of viable bacteria using magnetic ionic liquid for PCR amplification and culture-based diagnostics” (priority 2017, dated 2021)
